Data taken from BigSolDB 2.1.

SMILES: CO[C@@]1(NC(=O)CSCC#N)C(=O)N2C(C(=O)O)=C(CSc3nnnn3C)CS[C@@H]21
- solubility (mole fraction) (in ethanol, 278.15 K): 0.000266
- solubility (mole fraction) (in ethanol, 283.15 K): 0.000276
- solubility (mole fraction) (in ethanol, 288.15 K): 0.000343
- solubility (mole fraction) (in ethanol, 293.15 K): 0.000435
- solubility (mole fraction) (in ethanol, 298.15 K): 0.00049
- solubility (mole fraction) (in ethanol, 303.15 K): 0.000659
- solubility (mole fraction) (in methanol, 278.15 K): 0.00163
- solubility (mole fraction) (in methanol, 283.15 K): 0.00187
- solubility (mole fraction) (in methanol, 288.15 K): 0.00222
- solubility (mole fraction) (in methanol, 293.15 K): 0.00273
- solubility (mole fraction) (in methanol, 298.15 K): 0.00364
- solubility (mole fraction) (in methanol, 303.15 K): 0.00445
